The subject of test [1] is S. cerevisiae alpha-synuclein toxicity rescue, OD600 growth, 24 h. As to the kind of experiment: activators protecting yeast from synuclein toxicity – S. cerevisiae, OD600, dry powder, dose response (AID 602279).
Experiment in test [2]: as above
Conditions: S. cerevisiae alpha-synuclein toxicity rescue, OD600 growth, 24 h; at 26 µM (top of the series).

Calls of active or inactive are those of the source.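 Rule for the calls: active = fitted curve reaches 40% growth rescue activation at or below the top valid tested concentration; inconclusive = flat fit between 30 and 70%, or poor fit quality; inactive = activity opposite to the expected rise, and the rest.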

Take `CC(C)c1ccc(C2NC(=O)c3ccccc3O2)cc1` (centres undefined): the AC40 in test [1] was > 26 µM (inactive).

Take `Cc1ccccc1CSc1nsc(N)n1`: in test [1], the AC40 was > 26 µM (inactive).

On to `O=c1c2ccccc2[nH]c(=S)n1CCC1=CCCCC1`, for which the growth rescue activation in test [2] was 18.9% (inactive).

Regarding `Fc1cc(NCc2ccccc2)nc(NCc2ccccc2)n1`, in test [1], the AC40 was > 26 µM (inactive).

These data come from PubChem BioAssay AID602279 (Broad Institute, 2012).
